Among the data in patent US4940705A, “N-substituted derivatives of 1-desoxynojirimycin and 1-desoxymannonojirimycin and pharmaceutical use” (Bayer Aktiengesellschaft, priority 1987, dated 1990) are MIC and MCC values, retold here.

One series concerns Visna virus. As to the kind of experiment: Visna virus test: inhibition of virus-induced cytopathic effect / virus multiplication in infected cell cultures. In kind it is cell-based. The settings on record: Visna-maedi virus, 168 h, sheep fibroblast cells, 7 days at 37° C., Table 1, read-out: 2 MIC (minimum concentration at which an inhibition of virus multiplication was still observed). The method, then: In cell cultures which are infected with Visna virus, pronounced virus-induced, cytopathic effects appear 5 to 10 days after infection. By treatment of the infected cell cultures with the compounds according to the invention, the appearance of these cytopathic effects could be prevented.
(§1) The Visna virus test was carried out by the method of O. Narayan et al., Journal of Infectious Diseases 135, 5, 1977, 800-806. For this, the compounds according to the invention were diluted to non-cytotoxic concentrations in culture medium in 96-well microtiter plates. Subsequently, sheep fibroblast cells (5×10^4 cells per well) in production medium were added to each well. Each well then contained 50 μl of a Visna virus solution having a titre of about 2.5×10^4TCID50 (TCID=tissue culture infectious dose). This virus dose corresponds to an MOI (multiplicity of infection) of about 0.05.
The infected and treated cells and the controlled cells were incubated for 7 days at 37° C. and 5% CO2.
On appearance of the virus-induced cytopathogenic effect in the untreated virus control, the cultures were fixed using formalin and subsequently stained with a Giemsa solution.
(§2) Herein, MCC denotes cytotoxicity and MIC denotes the minimum concentration at which an inhibition of virus multiplication was still observed.
A general note: Protection from cytopathic effect is a common read-out in antiviral testing.

A short description of the next series: Cytotoxicity (MCC). In kind it is cell-based. The settings on record: sheep, sheep fibroblast cells; MCC denotes cytotoxicity; Table 1. The method, then:
as §1, §2

≈ marks a conversion by molar mass, not a printed value.

For the compound `C=CCOc1ccc(NC(=O)CCN2C[C@H](O)[C@@H](O)[C@H](O)[C@H]2CO)cc1` [Example 10, N-(4-Allyloxyphenyl)-3-(1,5-didesoxy-1,5-imino-D-glucit-N-yl)propionamide], the MIC in the series with Visna virus was 30 mg/L (≈ 81.9 µM). The compound further returned an MCC in the series “Cytotoxicity (MCC)” of more than 1000 µg/mL.
The matching figures for `CC(C)c1ccccc1NC(=O)CCN1C[C@@H](O)[C@@H](O)[C@H](O)[C@H]1CO` [Example 55, N-(2-Isopropylphenyl)-3-(1,5-didesoxy-1,5-imino-D-mannit-N-yl)propionamide]: 250 mg/L (≈ 709 µM) and 1000 µg/mL.
The matching figures for `O=C(CCN1C[C@H](O)[C@@H](O)[C@H](O)[C@H]1CO)Nc1ccc2c(c1)OCCO2` [Example 29, N-(3,4-Ethylenedioxyphenyl)-3-(1,5-didesoxy-1,5-imino-D-glucit-N-yl)propionamide]: 125 mg/L (≈ 339 µM) and more than 1000 µg/mL.
The matching figures for `CC(C)c1ccc(NC(=O)CCN2C[C@@H](O)[C@@H](O)[C@H](O)[C@H]2CO)cc1` [Example 54, N-(4-Isopropylphenyl)-3-(1,5-didesoxy-1,5-imino-D-mannit-N-yl)propionamide]: 250 mg/L (≈ 709 µM) and 1000 µg/mL.
Regarding `N#Cc1cccc(NC(=O)CCN2C[C@H](O)[C@@H](O)[C@H](O)[C@H]2CO)c1` [Example 27, N-(3-Cyanophenyl)-3-(1,5-didesoxy-1,5-imino-D-glucit-N-yl)propionamide], the MIC in the series with Visna virus came to 250 mg/L (≈ 745 µM). Also, the MCC in “Cytotoxicity (MCC)” is more than 1000 µg/mL.
The matching figures for `CSc1ccccc1NC(=O)CCN1C[C@H](O)[C@@H](O)[C@H](O)[C@H]1CO` [Example 32, N-(2-Methylthiophenyl)-3-(1,5-didesoxy-1,5-imino-D-glucit-N-yl)propionamide]: 250 mg/L (≈ 701 µM) and more than 1000 µg/mL.
The matching figures for `Cc1ccccc1N1CCN(C(=O)CCN2C[C@H](O)[C@@H](O)[C@H](O)[C@H]2CO)CC1` [Example 96, 3-(1,5-Didesoxy-1,5-imino-D-glucit-N-yl)propionyl-1-(4-2-methylphenyl)piperazine]: 500 mg/L (≈ 1270 µM) and more than 1000 µg/mL.
The matching figures for `Cc1cccc(N2CCN(C(=O)CCN3C[C@H](O)[C@@H](O)[C@H](O)[C@H]3CO)CC2)c1` [Example 93, 3-(1,5-Didesoxy-1,5-imino-D-glucit-N-yl)propionyl-1-(3-methylphenyl)piperazine]: 500 mg/L (≈ 1270 µM) and more than 1000 µg/mL.
As to `O=C(CCN1C[C@H](O)[C@@H](O)[C@H](O)[C@H]1CO)Nc1ccc(OCc2ccccc2)cc1` [Example 4, N-(4-Benzyloxyphenyl)-3-(1,5-didesoxy-1,5-imino-D-glucit-N-yl)propionamide], the MIC in the series on Visna virus amounted to 125 mg/L (≈ 300 µM). This compound also showed an MCC in “Cytotoxicity (MCC)” of more than 1000 µg/mL.
In the same order, the values of `O=C(CCN1C[C@H](O)[C@@H](O)[C@H](O)[C@H]1CO)Nc1ccc(F)c(F)c1` [Example 19, N-(3,4-Difluorophenyl)-3-(1,5-didesoxy-1,5-imino-D-glucit-N-yl)propionamide] are 125 mg/L (≈ 361 µM) and more than 1000 µg/mL.
The matching figures for `O=C(CCN1C[C@H](O)[C@@H](O)[C@H](O)[C@H]1CO)Nc1ccccc1` [Example 34, N-Phenyl-3-(1,5-didesoxy-1,5-imino-D-glucit-N-yl)propionamide]: 15 mg/L (≈ 48.3 µM) and more than 1000 µg/mL.
The matching figures for `O=C(O)CCCN1C[C@H](O)[C@@H](O)[C@H](O)[C@H]1CO` [Example 107, 4-(1,5-Didesoxy-1,5-imino-D-glucit-N-yl)butanoic acid]: 500 mg/L (≈ 2010 µM) and more than 1000 µg/mL.
For `O=C(CCN1C[C@H](O)[C@@H](O)[C@H](O)[C@H]1CO)Nc1ccc2c(c1)OCO2` [Example 31, N-(3,4-Methylenedioxyphenyl)-3-(1,5-didesoxy-1,5-imino-D-glucit-N-yl)propionamide], the MIC in the series on Visna virus was determined as 125 mg/L (≈ 353 µM). Further, the MCC in the series “Cytotoxicity (MCC)” was more than 1000 µg/mL.
In the same order, the values of `O=C(CCN1C[C@H](O)[C@@H](O)[C@H](O)[C@H]1CO)Nc1ccccc1F` [Example 16, N-(2-Fluorophenyl)-3-(1,5-didesoxy-1,5-imino-D-glucit-N-yl)propionamide] are 250 mg/L (≈ 761 µM) and more than 1000 µg/mL.
The matching figures for `CCN(CC)CCOc1ccc(NC(=O)CCN2C[C@@H](O)[C@@H](O)[C@H](O)[C@H]2CO)cc1` [Example 50, N-[4-(2-N,N-Diethylaminoethoxy)phenyl]-3-(1,5-didesoxy-1,5-imino-D-mannit-N-yl)propionamide]: 250 mg/L (≈ 588 µM) and 1000 µg/mL.
In the same order, the values of `COC(=O)c1ccc(NC(=O)CCN2C[C@@H](O)[C@@H](O)[C@H](O)[C@H]2CO)cc1` [Example 43, N-(4-Methoxycarbonylphenyl)-3-(1,5-didesoxy-1,5-imino-D-mannit-N-yl)propionamide] are 500 mg/L (≈ 1360 µM) and more than 1000 µg/mL.
With `O=C(CCN1C[C@H](O)[C@@H](O)[C@H](O)[C@H]1CO)N1CCc2ccccc21` [Example 17, 1-[3-(1,5-Didesoxy-1,5-imino-D-glucit-N-yl)propionyl]-2,3-dihydroindole], the MIC in the series with Visna virus worked out at 125 mg/L (≈ 372 µM). Moreover, the MCC in “Cytotoxicity (MCC)” came out at 1000 µg/mL.
For the compound `O=C(CCN1C[C@@H](O)[C@@H](O)[C@H](O)[C@H]1CO)Nc1ccc(OC(F)(F)C(F)Cl)cc1` (stereo partly drawn) [Example 53, N-[4-(2-Chloro-1,1,2-trifluoroethoxy)phenyl]-3-(1,5-didesoxy-1,5-imino-D-mannit-N-yl)propionamide], the MIC in the series on Visna virus was determined as 250 mg/L (≈ 565 µM). This compound also registered an MCC in “Cytotoxicity (MCC)” of 500 µg/mL.
